Reference: patent publication US7071293B1, “Alpha helical peptides with broad spectrum antimicrobial activity that are insensitive to salt” (priority 1999, dated 2006)
Like-named read-outs stand apart in the source and are kept apart here. Ends that are not written are not given here.

What was measured:
S. aureus 930918-3 = details: for MIC S. aureus [NaCl] High / MIC S. aureus [NaCl] Low: 930918-3, pH 7.4
L. monocytogenes EGD = test: Two stage radial diffusion assay (MIC); format: cell-based; parameters: unit not given here; details: underlay 0 mM NaCl
N. gonorrhoeae = test: Two stage radial diffusion assay (MIC); format: cell-based; parameters: unit not given here; details: done only at 100 mM NaCl; for N. gonorrhoeae F 62 (serum-sensitive): strain F 62 (serum-sensitive); for N. gonorrhoeae FA 19 (serum-resistant): strain FA 19 (serum-resistant)
MRSA ATCC 33591 = details: for MIC MRSA [NaCl] High / MIC MRSA [NaCl] Low: ATCC 33591, pH 7.4
B. cepacia ATCC 25416 = test: Two stage radial diffusion assay (MIC); format: cell-based; parameters: unit not given here; details: underlay 0 mM NaCl
E. coli ML-35p = details: for E. coli ML-35p MIC, 0 mM NaCl: underlay 0 mM NaCl; for E. coli ML-35p MIC, 0 mM NaCl / E. coli ML-35p MIC, 175 mM NaCl: Table 15; for MIC E. coli [NaCl] High: high salt underlay (10 mM sodium phosphate buffer +100 mM NaCl, pH 7.4); for MIC E. coli [NaCl] High / MIC E. coli [NaCl] Low: Table 13; for MIC E. coli [NaCl] Low: low salt underlay (10 mM sodium phosphate buffer, pH 7.4); for E. coli ML-35p MIC, 175 mM NaCl: underlay 175 mM NaCl
P. aeruginosa MR 3007 = details: for MIC P. aeruginosa [NaCl] High / MIC P. aeruginosa [NaCl] Low: MR 3007, pH 7.4
E. coli DH5α = details: for EC50: DH5α; for EC50 E. coli DH5α: ionic strength 25 mM, avg ± sem
E. coli DH-5α = details: DH-5α
[1] = ionic strength 25 mM, avg ± sem
[2] = ionic strength 175 mM, avg ± sem

Row | Substance | S. aureus 930918-3 MIC, 0 mM NaCl (S. aureus 930918-3) | L. monocytogenes in underlays of low, normal and high salinity, 0 mM NaCl (L. monocytogenes EGD) | N. gonorrhoeae F 62 (serum-sensitive) (N. gonorrhoeae) | N. gonorrhoeae FA 19 (serum-resistant) (N. gonorrhoeae) | MRSA ATCC 33591 MIC, 0 mM NaCl (MRSA ATCC 33591) | B. cepacia ATCC 25416 in underlays of low, normal and high salinity, 0 mM NaCl (B. cepacia ATCC 25416) | E. coli ML-35p MIC, 0 mM NaCl (E. coli ML-35p) | P. aeruginosa MR-3007 MIC, 0 mM NaCl (P. aeruginosa MR 3007) | MIC S. aureus [NaCl] High (S. aureus 930918-3) | MIC S. aureus [NaCl] Low (S. aureus 930918-3) | MIC MRSA [NaCl] High (MRSA ATCC 33591) | MIC MRSA [NaCl] Low (MRSA ATCC 33591) | MIC E. coli [NaCl] High (E. coli ML-35p) | MIC E. coli [NaCl] Low (E. coli ML-35p) | EC50 P. aeruginosa PAO1 (P. aeruginosa PAO1; [1]) | MIC P. aeruginosa [NaCl] High (P. aeruginosa MR 3007) | MIC P. aeruginosa [NaCl] Low (P. aeruginosa MR 3007) | other results
1 | GLRKRLRKFRNKIKEKLKKIG [Peptide 19] | 1.8 µg/mL | 0.3 | 0.6 | >79.1 | 19.4 µg/mL | >250 | 2.3 µg/mL | 0.7 µg/mL |  |  |  |  |  |  |  |  |  | 
2 | IRRIIRKIIHIIKK-NH2 [Peptide 13] | 1.03 ± 0.03 µg/mL |  |  |  | 2.39 ± 0.07 µg/mL |  |  | 0.84 ± 0.06 µg/mL |  |  |  |  |  |  |  |  |  | S. aureus 930918-3 MIC, 175 mM NaCl (S. aureus 930918-3): 5.93 ± 1.12 µg/mL; P. aeruginosa PA-01 MIC, 0 mM NaCl (P. aeruginosa PA-01): 1.03 ± 0.08 µg/mL; P. aeruginosa PA-01 MIC, 175 mM NaCl (P. aeruginosa PA-01): 7.45 ± 0.87 µg/mL; MRSA ATCC 33591 MIC, 175 mM NaCl (MRSA ATCC 33591): >79.1 µg/mL; P. aeruginosa MR-3007 MIC, 175 mM NaCl (P. aeruginosa MR 3007): 19.7 ± 2.2 µg/mL
3 | KIKEKLKKIGQKIQG [CAP18-15b] |  |  |  |  |  |  |  |  | >250 µg/mL | >250 µg/mL | >250 µg/mL | >250 µg/mL | >250 µg/mL | 1.6 µg/mL | 10.3 ± 0.3 µg/mL | >250 µg/mL | 8.7 µg/mL | EC50 (E. coli DH5α): 4150 ± 1040 nM; EC50 E. coli DH5α (E. coli DH5α): 7.23 ± 1.81 µg/mL; EC50 P. aeruginosa PAO1 (P. aeruginosa PAO1; PAO1): >80 µg/mL
4 | KIKEKLKKIGQKIQG [Peptide 25] | >250 µg/mL | >250 | >79.1 | >250 | >250 µg/mL | >250 | 1.6 µg/mL | 8.7 µg/mL |  |  |  |  |  |  |  |  |  | 
5 | KIKEKLKKIGQKIQGLL [CAP18-17] |  |  |  |  |  |  |  |  | >250 µg/mL | >250 µg/mL | >250 µg/mL | >250 µg/mL | 1.9 µg/mL | 9.7 µg/mL | 2.33 ± 0.35 µg/mL | >250 µg/mL | 5.1 µg/mL | EC50 (E. coli DH5α): 1270 ± 200 nM; EC50 E. coli DH5α (E. coli DH5α): 2.51 ± 0.38 µg/mL; EC50 P. aeruginosa PAO1 (P. aeruginosa PAO1; PAO1): >25 µg/mL
6 | KIKEKLKKIGQKIQGLL [Peptide 26] | >250 µg/mL | 5.7 | >79.1 | >250 | >250 µg/mL | >250 | 0.4 µg/mL | 1.0 µg/mL |  |  |  |  |  |  |  |  |  | 
7 | KNLRRIIRKIIHIIKKYGPTILRIIRIIG-NH2 [SMAP29X] |  |  |  |  |  |  |  |  | 1.5 µg/mL | 1.6 µg/mL | 1.0 µg/mL | 6.2 µg/mL | 0.8 µg/mL | 1.5 µg/mL | 2.74 ± 0.65 µg/mL | 1.0 µg/mL | 2.6 µg/mL | EC50 P. aeruginosa PAO1 (P. aeruginosa PAO1; [2]): 4.51 ± 0.24 µg/mL
8 | KRLRKFRNKIKEKLKKIG [Peptide 20] | 9.7 µg/mL | 2.3 | >250 | >250 | 14.9 µg/mL | >250 | 2.3 µg/mL | 2.9 µg/mL |  |  |  |  |  |  |  |  |  | 
9 | LRKFRNKIKEKLKKIGQKI [Peptide 22] | 6.0 µg/mL | 5.9 | >79.1 | >250 | 4.5 µg/mL | >250 | 0.1 µg/mL | 0.7 µg/mL |  |  |  |  |  |  |  |  |  | 
10 | LRKFRNKIKEKLKKIGQKIQG [CAP18-21b] |  |  |  |  |  |  |  |  | >250 µg/mL | 16.3 µg/mL | >250 µg/mL | 10.3 µg/mL | 0.5 µg/mL | 2.3 µg/mL | 1.83 ± 0.51 µg/mL | 23.5 µg/mL | 2.9 µg/mL | EC50 (E. coli DH5α): 1170 ± 130 nM; EC50 E. coli DH5α (E. coli DH5α): 2.99 ± 0.33 µg/mL; EC50 P. aeruginosa PAO1 (P. aeruginosa PAO1; [2]): 3.45 ± 0.02 µg/mL
11 | LRRIIRKIIHIIK-NH2 [Peptide 15] | 1.32 ± 0.22 µg/mL |  |  |  | 2.49 ± 0.27 µg/mL |  | 0.64 ± 0.15 µg/mL | 0.96 ± 0.08 µg/mL |  |  |  |  |  |  |  |  |  | S. aureus 930918-3 MIC, 175 mM NaCl (S. aureus 930918-3): 6.39 ± 1.12 µg/mL; E. coli DH-5α MIC, 0 mM NaCl (E. coli DH-5α): 0.82 ± 0.12 µg/mL; E. coli DH-5α MIC, 175 mM NaCl (E. coli DH-5α): 5.35 ± 1.87 µg/mL; P. aeruginosa PA-01 MIC, 0 mM NaCl (P. aeruginosa PA-01): 1.07 ± 0.19 µg/mL; P. aeruginosa PA-01 MIC, 175 mM NaCl (P. aeruginosa PA-01): 4.66 ± 1.57 µg/mL; MRSA ATCC 33591 MIC, 175 mM NaCl (MRSA ATCC 33591): 65.8 ± 13.3 µg/mL; E. coli ML-35p MIC, 175 mM NaCl (E. coli ML-35p): 12.6 ± 2.8 µg/mL; P. aeruginosa MR-3007 MIC, 175 mM NaCl (P. aeruginosa MR 3007): 9.14 ± 4.81 µg/mL
12 | LRRIIRKIIHIIKK [Peptide 12] | 2.40 ± 0.17 µg/mL |  |  |  | 11.0 ± 3.96 µg/mL |  | 0.68 ± 0.07 µg/mL | 0.98 ± 0.08 µg/mL |  |  |  |  |  |  |  |  |  | S. aureus 930918-3 MIC, 175 mM NaCl (S. aureus 930918-3): 79.1 ± 0 µg/mL; E. coli DH-5α MIC, 0 mM NaCl (E. coli DH-5α): 1.36 ± 0.19 µg/mL; E. coli DH-5α MIC, 175 mM NaCl (E. coli DH-5α): 19.1 ± 5.0 µg/mL; P. aeruginosa PA-01 MIC, 0 mM NaCl (P. aeruginosa PA-01): 0.98 ± 0.05 µg/mL; P. aeruginosa PA-01 MIC, 175 mM NaCl (P. aeruginosa PA-01): 11.9 ± 4.7 µg/mL; MRSA ATCC 33591 MIC, 175 mM NaCl (MRSA ATCC 33591): >79.1 µg/mL; E. coli ML-35p MIC, 175 mM NaCl (E. coli ML-35p): >79.1 µg/mL; P. aeruginosa MR-3007 MIC, 175 mM NaCl (P. aeruginosa MR 3007): 46.3 ± 9.1 µg/mL
13 | RKFRNKIKEKLKKIG [CAP18-15a] |  |  |  |  |  |  |  |  | >250 µg/mL | 19.5 µg/mL | >250 µg/mL | >250 µg/mL | 0.7 µg/mL | 0.2 µg/mL | 1.54 ± 0.43 µg/mL | 5.3 µg/mL | 1.5 µg/mL | EC50 (E. coli DH5α): 240 ± 70 nM; EC50 E. coli DH5α (E. coli DH5α): 0.46 ± 0.12 µg/mL; EC50 P. aeruginosa PAO1 (P. aeruginosa PAO1; PAO1): >20 µg/mL
14 | RRIIRKIIHIIK-NH2 [Peptide 17] | 2.29 ± 0.07 µg/mL |  |  |  | 11.9 ± 4.7 µg/mL |  | 0.29 ± 0.06 µg/mL | 0.72 ± 0.15 µg/mL |  |  |  |  |  |  |  |  |  | S. aureus 930918-3 MIC, 175 mM NaCl (S. aureus 930918-3): >79.1 µg/mL; E. coli DH-5α MIC, 0 mM NaCl (E. coli DH-5α): 0.51 ± 0.09 µg/mL; E. coli DH-5α MIC, 175 mM NaCl (E. coli DH-5α): 46.1 ± 16.1 µg/mL; P. aeruginosa PA-01 MIC, 0 mM NaCl (P. aeruginosa PA-01): 0.69 ± 0.08 µg/mL; P. aeruginosa PA-01 MIC, 175 mM NaCl (P. aeruginosa PA-01): 17.2 ± 4.6 µg/mL; MRSA ATCC 33591 MIC, 175 mM NaCl (MRSA ATCC 33591): >79.1 µg/mL; E. coli ML-35p MIC, 175 mM NaCl (E. coli ML-35p): >79.1 µg/mL; P. aeruginosa MR-3007 MIC, 175 mM NaCl (P. aeruginosa MR 3007): >79.1 µg/mL
